Data set [1] can be described thus: Weight loss activity of cyclic dipeptides. Particulars: in vivo. The source says: As to the active ingredient, while the effect as to weight loss appears to be stereospecific, it is contemplated that alterations can be made to the compound to enhance the activities thereof contemplated to fall within the scope of the instant invention.
A short description of data set [2]: Intraperitoneal cyclo (His-Pro), inhibition of appetite in animals receiving liquid diets. Type of data set: in vivo. The settings on record: intraperitoneally, 20 mg/kg/day for 24 days.
Data set [3] is described as follows: Intracerebroventricular administration / lateral ventricle infusion, appetite and weight gain. The data set is classed as in vivo, rodents. The settings on record: administered IVT acutely.
The nature of data set [4]: Passage of the blood-brain barrier. The data set is classed as in vivo. The settings on record: non-CNS administration. How it is done: Thus, it was determined in the development of the instant invention that cyclo (His-Pro), unlike the vast majority of biologics that are susceptible to degradation in the gastrointestinal tract, can be administered by those routes normally employed for drug administration, such as intramuscularly and intravenously, but also that cyclo (His-Pro) can be administered orally. […] Although not an absolute barrier of the passage of compounds into the brain, many compounds cross very slowly if at all to any effective extent.

The nature of data set [5]: Stability in vivo and in drinking water. An excerpt: While it is known that the pyroglutamic acid residue often confers stability on a peptide carrying the same at a terminus, such as TRH, the precursor of cyclo (His-Pro), the pyroglutamic acid residue is not present in cyclo His-Pro.
The carrier(s) must be "acceptable" in the sense of being compatible with other ingredients of the formulation and not deleterious to the recipient thereof. […] Formulations suitable for administration conveniently comprise sterile aqueous solutions of the active chemical, which may be conveniently prepared by mixing the active chemical with water, and after rendering said solution sterile it may be presented in sealed containers.

The conditions of data set [6]: cited from earlier work.
Data set [7] deals with pancreatic or intestinal enzymes. Description: Resistance to proteolytic digestion.
Data set [8] in a line: Oral administration to rats, appearance in plasma. Particulars: administered orally to rats.
Data set [9] can be described thus: Oral cyclo (His-Pro) in drinking water, weight gain in rodents.
Where [10] appears, read: oral in drinking water, versus control animals, P<0.02.

Some results are limits rather than exact numbers.

On to `O=C(O)CCC1NC(=O)C(Cc2ccccc2)NC1=O` (stereo not shown) [cyclo (Glu-Phe)], for which the weight loss activity result in [1] is reported as “did not provide weight loss activity”.
Turning to `O=C1N[C@@H](Cc2cnc[nH]2)C(=O)N2CCC[C@@H]12` [cyclo (His-Pro), L-histidyl-L-proline diketopiperazine], the inhibition of appetite entry in [2] is listed as “can induce inhibition of appetite”. Further, in data set [3], the duration of action entry was “about 12 hours”. Moreover, the blood-brain barrier passage result in [4] was “crosses the blood-brain barrier to achieve effective concentrations in a short period of time”. Moreover, in data set [5] (added to water, such as drinking water from the tap), the “effectiveness after addition to water” value was “retain effectiveness”. In data set [5] (in vivo), the “enzymatic degradation in vivo” value is “resistant to enzymatic degradation in vivo” and the half-life entry is given as “long half-life”. Further, in [6] (after intracerebroventricular administration to rodents), the “duration of appetite reduction” value is not above 12 h. Besides, in data set [6] (infused into the lateral ventricle), the “duration of inhibition of weight gain” value is on record as 2 weeks. The “resistance to proteolytic digestion” value in data set [7] is given as “uniquely resistant to proteolytic digestion”. Also, the “form appearing in plasma” value in data set [8] is on record as “completely unaltered biochemically”. For the same molecule, the “cause of weight loss (satiety versus illness)” value in data set [9] (experimental studies) is reported as “due to induction of satiety, not of nausea, vomiting or illness”. Besides, the “mean body weight reached by experimental animals” value in data set [9] (oral in drinking water, 1 or 2 mg/kg/day for 14 to 18 days, controls gained from a mean of 248 to 396 gms) was determined as 384 gms. For the same molecule, in data set [9] (setting [10]), the “inhibition of weight gain” value is 12 grams and the “inhibition of weight gain (minus %)” value amounted to 8.1%.
Consider `O=C1[C@@H]2CCCN2C(=O)[C@@H]2CCCN12` [cyclo (Pro-Pro)], for which the weight loss activity entry in data set [1] is “did not provide weight loss activity”.

The record behind these values is patent publication US5418218A, “Histidyl-proline diketopiperazine (cyclo his-pro) a cns-active pharmacologic agent” (The University of Maryland at Baltimore, priority 1992, dated 1995).
